Laboratory results as given in US6573243B1, “Pompilid wasp-derived neuropeptides” (Suntory Limited, priority 1997, dated 2003).

System: nerve-muscle junction of a lobster's walking leg
Assay: Effect on excitatory postsynaptic potential (EPSP) in the neuromuscular specimen of a lobster's walking leg
Conditions: for concentration at which the peptide enhanced EPSP: sample dissolved in artificial seawater on the nerve-muscle junction side, excitatory nerve electrically stimulated; for biological activity of the synthetic peptide compared with the natural peptide: synthetic vs natural peptide
Experimental: The biological activity of the present peptides can be assayed according to the methods described in Japanese Patent Laid-Open No. 4-198161, in which excitatory postsynaptic potential (EPSP) is generated in the neuromuscular specimen of a lobster's walking leg, and the effect of the compound given to the nerve fibers on the EPSP is determined.
In general, substances inhibiting EPSP are believed to be glutamate antagonists or inhibitors for the release of glutamic acid, and the substances enhancing EPSP are believed to be glutamate-like agonists or accelerators for the release of glutamic acid.
The effect of the present peptides on excitatory postsynaptic potential (EPSP) was measured according to the method disclosed in Japanese Patent Laid-Open No. 4-198161. Thus, the shell of a lobster's walking leg was removed to expose the excitatory nerve and the inhibitory nerve, and a stimulating electrode was attached thereto. Then the nerve-muscle junction was exposed, and a recording electrode was attached thereto. The walking leg equipped with the electrodes was transferred to a container filled with an artificial seawater, and a partition was set up between the stimulating electrode part and the recording electrode part. The samples to be measured were dissolved into the artificial seawater in the recording electrode side (i.e., the side containing the nerve-muscle junction). Subsequently, the excitatory nerve was electrically stimulated and the EPSP, which was induced by glutamic acid released from the nerve end in response to the stimulation, was recorded.

Substance | concentration at which the peptide enhanced EPSP [nM] | biological activity of the synthetic peptide compared with the natural peptide
H-Arg-Ile-Lys-Ile-Gly-Leu-Phe-Asp-Gln-Leu-Ser-Arg-Leu-NH2 (H-RIKIGLFDQLSRL-NH2) [peptide (97)] | 200 | same biological activity as the natural peptides
H-Arg-Ile-Lys-Ile-Gly-Leu-Phe-Asp-Gln-Leu-Ser-Lys-Leu-NH2 (H-RIKIGLFDQLSKL-NH2) [peptide (1)] | 1000 | same biological activity as the natural peptides
